From patent US5656660A, “Compositions and methods for treating mast-cell mediated conditions” (Arris Pharmaceutical Corporation, priority 1995, dated 1997)
pKi: −log10 of the molar value.

Target: tryptase
Assay: In vitro tryptase inhibition assay
Format: biochemical, human
Conditions: tosyl-Gly-Pro-Lys-p-nitroanilide 0.5 mM; 1 h preincubation at room temperature; pH 8.2
Method: The compounds to be assayed (approximately 1 mg) were dissolved in 200 μL dimethylsulfoxide (DMSO) and diluted 1:10 into buffer containing 50 millimolar (mM) Tris-HCl (pH 8.2), 100 mM sodium chloride, and 0.05% polyoxyethylenesorbitan monolaurate (Tween-20°, available from Sigma, St. Louis, Mo.). Seven additional threefold dilutions were made from the initial dilution into the same buffer supplemented with 10% DMSO. Aliquots (50 microliters, μL) from each of the eight dilutions in the series were transferred to individual wells in a 96-well U-bottom microtiter plate. […] The tryptase solution was prepared by placing 60 μg/mL of tryptase into solution with 10 mM MES (2-[N-Morpholino]ethane sulfonic acid) containing 2 mM CaCl2, 20% glycerol and 50 μg/mL heparin. The enzyme reaction was initiated with the addition of the synthetic tripeptide substrate, tosyl-Gly-Pro-Lys-p-nitroanilide (available from Sigma, 25 μL; 0.5 mM final concentration). […] Initial velocity measurements calculated from the progress curves by a kinetic analysis program (BatchKi; Petr Kuzmic, University of Wisconsin, Madison, Wis.) were used to determine apparent inhibition constants for each inhibitor.

Going from CN(CCCC(=O)NCc1ccc(CN)cc1)C(=O)c1ccc(C(=O)N(C)CCCC(=O)NCc2ccc(CN)cc2)cc1 [Example 20, N,N'-Bis(N-[4-aminomethylbenzyl)butyramido)-N,N'-bis(methyl)terephthalamide] to NC[C@H]1CC[C@H](C(=O)NCCCNC(=O)OCc2ccc(COC(=O)NCCCNC(=O)[C@H]3CC[C@H](CN)CC3)cc2)CC1 [Example 22, N,N'-Bis(trans-4-aminomethylcyclohexyl-1-amido-propylene)-1,4-benzenedimethanol dicarbamate], the pKi falls from 6.97 to 6.04 (0.93 log units). The first binds more tightly here.

Compared with CN(Cc1ccc(CN(C)C(=O)CCC(=O)NCc2ccc(CN)cc2)cc1)C(=O)CCC(=O)NCc1ccc(CN)cc1 [Example 23], NCC1CCC(CNC(=O)CCCC(=O)NCc2ccc(CNC(=O)CCCC(=O)NCC3CCC(CN)CC3)cc2)CC1 (stereo not shown) [Example 24, N,N'-Bis(N-(4-aminomethylcyclohexylmethyl)-glutaramido)-p-xylylene diamide] is 1.04 log units lower in pKi: 8.30 for the first, 7.26 for the second. The first binds more tightly here.

CN(Cc1ccc(CN(C)C(=O)CCC(=O)NCC2CCC(CN)CC2)cc1)C(=O)CCC(=O)NCC1CCC(CN)CC1 (stereo not shown) [Example 25, N,N'-Bis(methyl)-bis(N-(4-aminomethylcyclohexylmethyl)succinamido)-p-xylylene diamide] and NCC1CCC(CNC(=O)CCC(=O)NCc2ccc(CNC(=O)CCC(=O)NCC3CCC(CN)CC3)cc2)CC1 (stereo not shown) [Example 26, N,N'-Bis(N-(4-aminomethylcyclohexylmethyl)-succinamido)-p-xylylene diamide] are within 0.2 log units of each other in pKi: 6.93 for the first, 6.91 for the second.

Going from CN(Cc1ccc(CN(C)C(=O)CCCC(=O)NCC2CCC(CN)CC2)cc1)C(=O)CCCC(=O)NCC1CCC(CN)CC1 (stereo not shown) [Example 27, N,N'-Bis(methyl)-bis(N-(4-aminomethylcyclohexylmethyl)-glutaramido)-p-xylylene didmine] to CC1(C)O[C@@H](C(=O)NCc2ccc(CN)cc2)[C@H](C(=O)NCc2ccc(CNC(=O)[C@@H]3OC(C)(C)O[C@H]3C(=O)NCc3ccc(CN)cc3)cc2)O1 [Example 28, N,N'-Bis(N-(4-aminomethylbenzyl)-dimethyl-2,3-isopropylidenetartaramido)-p-xylylene diamide], the pKi falls from 6.86 to 6.19 (0.67 log units).

Compared with NCC1CCCC(CNC(=O)CCC(=O)NCc2ccc(CNC(=O)CCC(=O)NCC3CCCC(CN)C3)cc2)C1 (stereo not shown) [Example 29, N,N'-Bis(N-(3-aminomethylcyclohexylmethyl)-succinamido)-p-xylylene diamide], CN(Cc1ccc(CN)cc1)C(=O)CCC(=O)NCc1ccc(CNC(=O)CCC(=O)N(C)Cc2ccc(CN)cc2)cc1 [Example 30, N,N,-Bis(N-methyl-N-(4-aminomethylbenzyl)-succinamido)-p-xylylene diamide] is 0.32 log units lower in pKi: 5.96 for the first, 5.64 for the second. The first binds more tightly here.

Going from NCC1CCC(CNC(=O)CNC(=O)OCc2ccc(COC(=O)NCC(=O)NCC3CCC(CN)CC3)cc2)CC1 (stereo not shown) [Example 31, Bis(1,4-cyclohexyldimethylamineglycine)-1,4-benzenedimethanol dicarbamate] to CN(Cc1ccc(CN)cc1)C(=O)CNC(=O)OCc1ccc(COC(=O)NCC(=O)N(C)Cc2ccc(CN)cc2)cc1 [Example 32], the pKi falls from 7.92 to 6.06 (1.86 log units).

First: NC[C@H]1CC[C@H](C(=O)NCCCCNC(=O)OCc2ccc(COC(=O)NCCCCNC(=O)[C@H]3CC[C@H](CN)CC3)cc2)CC1 [Example 33, N,N'-Bis(trans-4-aminomethyl-cyclohexyl-1-amidobutyl)-1,4-benzene dimethanol dicarbamate]
Second: NCc1ccc(C(=O)NCCCCNC(=O)c2ccc(C(=O)NCCCCNC(=O)c3ccc(CN)cc3)cc2)cc1 [Example 34, N,N'-Bis[4-(aminomethylbenzamido)butyl]-terephthalyldiamide]
The pKi of the first is 0.67 log units higher: 7.32 for the first, 6.65 for the second. The first binds more tightly here.

First: NCc1ccc(CNC(=O)CCC(=O)NCc2ccc(CNC(=O)CCC(=O)NCc3cccc(CN)c3)cc2)cc1 [Example 35, N-(3-Aminomethylbenzylsuccinamido)-N'-(4-aminomethyl-benzylsuccinamido)-p-xylylene diamide]
Second: N=C(N)Nc1ccc(CNC(=O)CC(=O)NCc2ccc(CNC(=O)CC(=O)NCc3ccc(NC(=N)N)cc3)cc2)cc1 [Example 36, N,N'-Bis(N-(4-Guanidylbenzylamine)-malonamido)-p-xylylene diamide]
The pKi of the first is 1.55 log units higher: 7.72 for the first, 6.17 for the second. The first binds more tightly here.

Compared with N=C(N)Nc1ccc(CNC(=O)CCC(=O)NCc2ccc(CNC(=O)CCC(=O)NCc3ccc(NC(=N)N)cc3)cc2)cc1 [Example 37], N=C(N)Nc1ccc(CNC(=O)CCCC(=O)NCc2ccc(CNC(=O)CCCC(=O)NCc3ccc(NC(=N)N)cc3)cc2)cc1 [Example 38] is 0.40 log units lower in pKi: 7.40 for the first, 7.00 for the second. The first binds more tightly here.

Compared with NCc1ccc(CNC(=O)CCC(=O)Nc2ccc(NC(=O)CCC(=O)NCc3ccc(CN)cc3)cc2)cc1 [Example 39, N,N'-Bis((N-(4-aminomethylbenzyl)succinamido))-p-phenethylenediamide], N=C(N)Nc1ccc(CNC2=CCCC(=O)N2C(=O)OCc2ccc(COC(=O)N3C(=O)CCC=C3NCc3ccc(NC(=N)N)cc3)cc2)cc1 [Example 40, Bis((R,S)-2-(4-guanidinobenzylamino)-2,3-dehydro-6-piperidone)-1,4-benzenedimethanol dicarbamate] is 1.89 log units lower in pKi: 8.22 for the first, 6.33 for the second. The first binds more tightly here.

Going from NCc1ccc(NC(=O)CNC(=O)OCc2ccc(COC(=O)NCC(=O)Nc3ccc(CN)cc3)cc2)cc1 [Example 42, Bis((4-aminomethylanilido)glycine)-1,4-benzenedimethanol dicarbamate] to N=C(N)NCc1ccc(NC(=O)CNC(=O)OCc2ccc(COC(=O)NCC(=O)Nc3ccc(CNC(=N)N)cc3)cc2)cc1 [Example 43, Bis((4-guanidomethylanilido)glycine)-1,4-benzenedimethanol dicarbamate], the pKi falls from 6.11 to 5.09 (1.02 log units). The first binds more tightly here.

Compared with NCc1cccc(CNC(=O)CNC(=O)OCc2ccc(COC(=O)NCC(=O)NCc3cccc(CN)c3)cc2)c1 [Example 44, Bis((3-aminomethylbenzylamido)glycine)-1,4-benzenedimethanol dicarbamate], NC[C@H]1CC[C@H](CNC(=O)CNC(=O)OCc2ccc(COC(=O)NCC(=O)NC[C@H]3CC[C@H](CN)CC3)cc2)CC1 [Example 45, Bis(trans-1,4-cyclohexyldimethylamine-glycine)-1,4-benzenedimethanol dicarbamate] is 0.74 log units higher in pKi: 7.26 for the first, 8.00 for the second. The second binds more tightly here.

First: N=C(N)Nc1ccc(CNC(=O)CNC(=O)NCc2ccc(CNC(=O)NCC(=O)NCc3ccc(NC(=N)N)cc3)cc2)cc1 [Example 46, 4-(Guanidinobenzylamido)glycine-1,4-xylylene diurea]
Second: NCc1ccc(CNC(=O)NCC(=O)NCc2ccc(CNC(=O)CNC(=O)NCc3ccc(CN)cc3)cc2)cc1 [Example 47, Bis(N-(4-aminomethylbenzyl)glycylurea)-p-xylylene diamide]
The pKi of the first is 0.79 log units higher: 8.00 for the first, 7.21 for the second. The first binds more tightly here.

Going from N=C(N)Nc1ccc(CNC(=O)NCC(=O)NCc2ccc(CNC(=O)CNC(=O)NCc3ccc(NC(=N)N)cc3)cc2)cc1 [Example 48] to NCC1CCC(C(=O)NCCCC(=O)NCc2ccc(CNC(=O)CCCNC(=O)C3CCC(CN)CC3)cc2)CC1 (stereo not shown) [Example 49], the pKi rises from 6.15 to 6.44 (0.29 log units).

Compared with NCc1ccc(CNC(=O)NCC(=O)NCCc2ccc(NC(=O)CNC(=O)NCc3ccc(CN)cc3)cc2)cc1 [Example 50, Bis(N-(4-aminomethylbenzyl)glycylurea)-1,4-phenethylenediamide], CN(Cc1ccc(CN(C)C(=O)CNC(=O)NC[C@H]2CC[C@H](CN)CC2)cc1)C(=O)CNC(=O)NC[C@H]1CC[C@H](CN)CC1 [Example 51, N,N'-Bis(methyl)-bis(glycine-trans-1,4-cyclohexylbis(methylamine)urea)-p-xylylene diamide] is 0.48 log units lower in pKi: 7.37 for the first, 6.89 for the second. The first binds more tightly here.

Compared with CN(Cc1ccc(CN(C)C(=O)CNC(=O)NCc2ccc(CN)cc2)cc1)C(=O)CNC(=O)NCc1ccc(CN)cc1 [Example 52, N,N'-Bis(methyl)-bis(glycine-p-xylylenediamine urea)-p-xylylene diamide], CN(Cc1ccc(CN(C)C(=O)c2ccc(CNC(=O)NC[C@H]3CC[C@H](CN)CC3)cc2)cc1)C(=O)c1ccc(CNC(=O)NC[C@H]2CC[C@H](CN)CC2)cc1 [Example 53] is 1.18 log units lower in pKi: 7.10 for the first, 5.92 for the second. The first binds more tightly here.

CN(Cc1ccc(CN(C)C(=O)CN(C)C(=O)NC[C@H]2CC[C@H](CN)CC2)cc1)C(=O)CN(C)C(=O)NC[C@H]1CC[C@H](CN)CC1 [Example 54, N,N'-Bis(methyl)-bis(sarcosine-trans-1,4-cyclohexylbis(methylamine)urea)-p-xylylene diamide] and “Bis((R,S)-2-(2-(4-guanidinobenzylamino)-2,3-dehydro-6-piperidone)-1,4-benzenedimethanol dicarbmate [Example 41]” are within 0.2 log units of each other in pKi: 6.22 for the first, 6.21 for the second.
